From ChEMBL document CHEMBL3526135, “Induction of xenobiotic receptors, transporters, and drug metabolizing enzymes by oxycodone” (Drug Metab Dispos, 2013)

Columns and labels:
Format in all cases: ADME, organism-based
Parameters in all cases: dose 15 mg/kg, route intraperitoneal
Slc37a4 = test: Effect on Slc37a4 mRNA expression in Sprague-Dawley rat liver at 15 mg/kg, ip administered twice daily every 12 hrs for 8 days by microarray analysis relative to control; conditions: read-out: FC
Abcg5 = test: Effect on Abcg5 mRNA expression in Sprague-Dawley rat liver at 15 mg/kg, ip administered twice daily every 12 hrs for 8 days by microarray analysis relative to control; conditions: read-out: FC
Rattus norvegicus [1] = test: Effect on CYP17a1 mRNA expression in Sprague-Dawley rat liver at 15 mg/kg, ip administered twice daily every 12 hrs for 8 days by qRT-PCR analysis relative to control; conditions: in vivo
Rattus norvegicus [2] = test: Effect on CAR mRNA expression in Sprague-Dawley rat liver at 15 mg/kg, ip administered twice daily every 12 hrs for 8 days by qRT-PCR analysis relative to control; conditions: in vivo
Rattus norvegicus [3] = test: Effect on CYP2b2 mRNA expression in Sprague-Dawley rat liver at 15 mg/kg, ip administered twice daily every 12 hrs for 8 days by qRT-PCR analysis relative to control; conditions: in vivo
Rattus norvegicus [4] = test: Effect on Slco1a4 mRNA expression in Sprague-Dawley rat liver at 15 mg/kg, ip administered twice daily every 12 hrs for 8 days by qRT-PCR analysis relative to control; conditions: in vivo
Rattus norvegicus [5] = test: Effect on Ces2 mRNA expression in Sprague-Dawley rat liver at 15 mg/kg, ip administered twice daily every 12 hrs for 8 days by qRT-PCR analysis relative to control; conditions: in vivo
Abca8b = test: Effect on Abca8b mRNA expression in Sprague-Dawley rat liver at 15 mg/kg, ip administered twice daily every 12 hrs for 8 days by microarray analysis relative to control; conditions: read-out: FC
Rattus norvegicus [6] = test: Effect on GAPDH mRNA expression in Sprague-Dawley rat liver at 15 mg/kg, ip administered twice daily every 12 hrs for 8 days by qRT-PCR analysis relative to control; conditions: in vivo
Abcb1a = test: Effect on Abcb1a mRNA expression in Sprague-Dawley rat liver at 15 mg/kg, ip administered twice daily every 12 hrs for 8 days by microarray analysis relative to control; conditions: read-out: FC
Slc27a5 = test: Effect on Slc27a5 mRNA expression in Sprague-Dawley rat liver at 15 mg/kg, ip administered twice daily every 12 hrs for 8 days by microarray analysis relative to control; conditions: read-out: FC
Rattus norvegicus [7] = test: Effect on Fkbp5 mRNA expression in Sprague-Dawley rat liver at 15 mg/kg, ip administered twice daily every 12 hrs for 8 days by qRT-PCR analysis relative to control; conditions: in vivo
NR1I2 = test: Effect on NR1I2 mRNA expression in Sprague-Dawley rat liver at 15 mg/kg, ip administered twice daily every 12 hrs for 8 days by microarray analysis relative to control; conditions: read-out: FC
Rattus norvegicus [8] = test: Effect on CYP2d2 mRNA expression in Sprague-Dawley rat liver at 15 mg/kg, ip administered twice daily every 12 hrs for 8 days by qRT-PCR analysis relative to control; conditions: in vivo
Ces2 = test: Effect on Ces2 mRNA expression in Sprague-Dawley rat liver at 15 mg/kg, ip administered twice daily every 12 hrs for 8 days by microarray analysis relative to control; conditions: read-out: FC
Rattus norvegicus [9] = test: Effect on PXR mRNA expression in Sprague-Dawley rat liver at 15 mg/kg, ip administered twice daily every 12 hrs for 8 days by qRT-PCR analysis relative to control; conditions: in vivo
CYP27a1 = test: Effect on CYP27a1 mRNA expression in Sprague-Dawley rat liver at 15 mg/kg, ip administered twice daily every 12 hrs for 8 days by microarray analysis relative to control; conditions: read-out: FC
Slc17a5 = test: Effect on Slc17a5 mRNA expression in Sprague-Dawley rat liver at 15 mg/kg, ip administered twice daily every 12 hrs for 8 days by microarray analysis relative to control; conditions: read-out: FC
Slc22a5 = test: Effect on Slc22a5 mRNA expression in Sprague-Dawley rat liver at 15 mg/kg, ip administered twice daily every 12 hrs for 8 days by microarray analysis relative to control; conditions: read-out: FC
Slc1a2 = test: Effect on Slc1a2 mRNA expression in Sprague-Dawley rat liver at 15 mg/kg, ip administered twice daily every 12 hrs for 8 days by microarray analysis relative to control; conditions: read-out: FC
FMO1 = test: Effect on FMO1 mRNA expression in Sprague-Dawley rat liver at 15 mg/kg, ip administered twice daily every 12 hrs for 8 days by microarray analysis relative to control; conditions: read-out: FC
CYP2e1 = test: Effect on CYP2e1 mRNA expression in Sprague-Dawley rat liver at 15 mg/kg, ip administered twice daily every 12 hrs for 8 days by microarray analysis relative to control; conditions: read-out: FC
Rattus norvegicus [10] = test: Effect on Abcb1a mRNA expression in Sprague-Dawley rat liver at 15 mg/kg, ip administered twice daily every 12 hrs for 8 days by qRT-PCR analysis relative to control; conditions: in vivo
CYP2j4 = test: Effect on CYP2j4 mRNA expression in Sprague-Dawley rat liver at 15 mg/kg, ip administered twice daily every 12 hrs for 8 days by microarray analysis relative to control; conditions: read-out: FC
CYP17a1 = test: Effect on CYP17a1 mRNA expression in Sprague-Dawley rat liver at 15 mg/kg, ip administered twice daily every 12 hrs for 8 days by microarray analysis relative to control; conditions: read-out: FC
Slc38a4 = test: Effect on Slc38a4 mRNA expression in Sprague-Dawley rat liver at 15 mg/kg, ip administered twice daily every 12 hrs for 8 days by microarray analysis relative to control; conditions: read-out: FC
CYP2b2 [11] = test: Effect on CYP2b2 mRNA expression in Sprague-Dawley rat liver at 15 mg/kg, ip administered twice daily every 12 hrs for 8 days by microarray analysis relative to control; conditions: read-out: FC
NR1I3 = test: Effect on NR1I3 mRNA expression in Sprague-Dawley rat liver at 15 mg/kg, ip administered twice daily every 12 hrs for 8 days by microarray analysis relative to control; conditions: read-out: FC
Por = test: Effect on Por mRNA expression in Sprague-Dawley rat liver at 15 mg/kg, ip administered twice daily every 12 hrs for 8 days by microarray analysis relative to control; conditions: read-out: FC
Rattus norvegicus [12] = test: Effect on Slc15a3 mRNA expression in Sprague-Dawley rat liver at 15 mg/kg, ip administered twice daily every 12 hrs for 8 days by qRT-PCR analysis relative to control; conditions: in vivo
Rattus norvegicus [13] = test: Effect on CYP2c13 mRNA expression in Sprague-Dawley rat liver at 15 mg/kg, ip administered twice daily every 12 hrs for 8 days by qRT-PCR analysis relative to control; conditions: in vivo
Rattus norvegicus [14] = test: Effect on Slc38a4 mRNA expression in Sprague-Dawley rat liver at 15 mg/kg, ip administered twice daily every 12 hrs for 8 days by qRT-PCR analysis relative to control; conditions: in vivo
CYP2b2 [15] = test: Upregulation of CYP2b2 protein expression in Sprague-Dawley rat liver microsomes at 15 mg/kg, ip administered twice daily every 12 hrs for 8 days by Western blot analysis relative to control; conditions: read-out: FC

COc1ccc2c3c1O[C@H]1C(=O)CC[C@@]4(O)[C@@H](C2)N(C)CC[C@]314.Cl [OXYCODONE HYDROCHLORIDE]
fold induction at 8 days (Slc37a4): 2 | fold induction at 8 days (Abcg5): 3.6 | Activity (Rattus norvegicus [1]): Active | Activity (Rattus norvegicus [2]): Active | Activity (Rattus norvegicus [3]): Active | Activity (Rattus norvegicus [4]): Active | Activity (Rattus norvegicus [5]): Active | fold induction at 8 days (Abca8b): 2.3 | Activity (Rattus norvegicus [6]): Active | fold induction at 8 days (Abcb1a): 2.8 | fold induction at 8 days (Slc27a5): 1.6 | Activity (Rattus norvegicus [7]): Active | fold induction at 8 days (NR1I2): 2.9 | Activity (Rattus norvegicus [8]): Active | fold induction at 8 days (Ces2): 2.8 | Activity (Rattus norvegicus [9]): Active | fold induction at 8 days (CYP27a1): 1.9 | fold induction at 8 days (Slc17a5): 1.5 | fold induction at 8 days (Slc22a5): 2.8 | fold induction at 8 days (Slc1a2): 2.4 | fold induction at 8 days (FMO1): 3.7 | fold induction at 8 days (CYP2e1): 1.5 | Activity (Rattus norvegicus [10]): Active | fold induction at 8 days (CYP2j4): 2.4 | fold induction at 8 days (CYP17a1): 17.1 | fold induction at 8 days (Slc38a4): 1.8 | fold induction at 8 days (CYP2b2 [11]): 6 | fold induction at 8 days (NR1I3): 6.1 | fold induction at 8 days (Por): 7 | Activity (Rattus norvegicus [12]): Active | Activity (Rattus norvegicus [13]): Active | Activity (Rattus norvegicus [14]): Active | fold induction at 8 days (CYP2b2 [15]): 5
